Laboratory results from publication PMC4926326, “Synthesis, Biological Activity, and Apoptotic Properties of NO-Donor/Enmein-Type ent-Kauranoid Hybrids” (International Journal of Molecular Sciences, 2016).
Converted amounts (≈) assume the structure as drawn.

Legend:
Bel-7402 cells [1] = assay: Mitochondrial membrane potential, JC-1 staining, flow cytometry; assay type: cell-based, human; conditions: 48 h, 0 μM 4.62%
Experimental: In the field of cancer, cellular apoptosis plays a very important role. The loss of mitochondrial membrane potential is a key event during drug-induced apoptosis. In order to investigate the mitochondria related effect of 9f, the fluorescent probe JC-1 (Keygen, KGA601, Nanjing, China) was used to detect the changes on mitochondrial membrane potential. Before Bel-7402 cells were stained with JC-1, cells were incubated with 0, 0.15, 0.3, and 0.6 μM of 9f. Then, the flow cytometry analysis was carried out to determine the cell numbers with collapsed mitochondria in different cell groups (Figure 4).
Bel-7402 cells were cultured in six-well plates after treatment with 9f or vehicles for 48 h. The cells were cells were collected by trypsinization, washed with PBS (Sigma Chemical Co., Shanghai, China) and stained according to the manufacturer’s instruction (Keygen, KGA601, Nanjing, China) with the lipophilic cationic dye JC-1. The flow cytometry analysis was carried out to monitor the percentage of cells with healthy or collapsed mitochondrial membrane potentials.

Bel-7402 cells [2] = assay: Cell cycle distribution by PI staining and flow cytometry; assay type: cell-based, human; conditions: 48 h, control 25.51%
From the text: Cell cycle arrest is an important sign for inhibition of proliferation and the series of events that take place in a cell leading to its division and replication. […] As the inhibitory effect of 9f on cell proliferation was observed, we next assessed the effect on the cell cycle distribution of Bel-7402 cells by flow cytometry (Figure 2). […] Compound 9f could influence Bel-7402 cell cycle progression at low micromolar concentrations in a dose-dependent manner.
Bel-7402 cells (5.0 × 10^3 cells/well) were plated in 6-well plates and incubated for 24 h, and then incubated with different concentrations (0.25, 0.5 and 1 μM) of 9f at 37 °C for 48 h. After 48 h treatment, cells were treated with 70% ethanol and RNase, sequentially, and stained with PI [34]. Cellular DNA content was measured by a flow cytometer for cell cycle distribution analysis.

[3] = tested on: human normal liver cells L-02; assay: MTT assay on normal cells; assay type: cell-based; conditions: MTT, 72 h, normal liver cells, mean ± SD of three experiments, read-out: IC50 L-02
Experimental: (§1) The antiproliferative activity of 9a–i against four human cancer cell lines K562 leukemia cell line, MGC-803 gastric cancer cell line, CaEs-17 esophageal cancer cell line, and Bel-7402 hepatoma cell line, and human normal liver cells L-02 was evaluated by MTT assay (Table 2).
(§2) MTT assay was developed to monitor mammalian cell survival and proliferation in vitro [32]. CaEs-17 cells (K562, Bel-7402 and MGC-803 cells) from American Type Culture Collection (ATCC, Manassas, VA, USA) were cultivated in RPMI-1640 medium supplemented with 5% fetal bovine serum (v/v), 100 U/mL penicillin, and […] streptomycin. Cells (5 × 10^4 cell/mL) at the log phase of their growth cycle were added to each well of a 96-well plate (100 µL/well) and incubated for 24 h at 37 °C in a humidified atmosphere of 5% CO2. Then, cells were treated with or without test compounds in different concentrations. After 72 h, 5 mg/mL MTT solution (20 µL per well) was added. Cells were incubated at 37 °C. After 4 h, MTT solution was removed and DMSO was added to each well (150 µL). Ten minutes later at room temperature, the optical density (OD) values were measured at the wavelength of 490 nm on a Microplate Reader NO. 550 (BIO-RAD Instruments Inc., Hercules, CA, USA). In this experiment, 10 µg/mL of Taxol was used as the positive control and 0.1% DMSO was used as the negative reference.

[4] = tested on: CaEs-17 esophageal cancer cell line; assay: MTT antiproliferative assay; assay type: cell-based; conditions: Homo sapiens, CaEs17; MTT, 72 h, mean ± SD of three experiments; read-out: IC50 CaEs-17
Experimental: as §1, §2

Bel-7402 cells [5] = assay: Apoptosis by Annexin-V and PI double staining, flow cytometry; assay type: cell-based, human; conditions: 72 h; for total percentage of apoptotic cells (early and late, Q2 + Q4): vehicle 7.88%
Experimental: To examine the potent cancer cell antiproliferative effect of 9f on Bel-7402 cells, the number of apoptotic cells was monitored using flow cytometry. The total percentage of apoptotic cells (early and late, Q2 + Q4) was 7.88% treated with a vehicle alone.
Bel-7402 cells were incubated with different concentrations (0.25, 0.5 and 1 μM) of 9f for 72 h. Then, Annexin-V and PI double staining was used to detect apoptotic cells to analyze apoptosis according to the manufacturer’s instructions by flow cytometry.

[6] = tested on: Monilia albicans (ATCC 10231); assay: Antifungal assay, microbroth dilution MIC; assay type: cell-based; conditions: Candida albicans, ATCC10231; 35 °C, 18 h; read-out: MIC M. albicans
From the text: (§3) The antibacterial activity of NO donor/enmein-type ent-kauranoid hybrids 9a–i against the Gram-negative bacterium Escherichia coli (ATCC 25922), Gram-positive bacterium Staphylococcus aureus (ATCC 29213) and Bacillus subtilis (CMCC 63501), and the fungus Monilia albicans (ATCC 10231) was first disclosed and summarized in Table 1. […] Thus, the introduction of NO-donor substituent groups at the 14-position of enmein-type 6,7-seco-ent-kauranoid could improve antimicrobial activity against S. aureus and B. subtilis.
(§4) The minimal inhibitory concentrations (MICs) were carried out by microbroth dilution method described by the Clinical Laboratory Standards Institute. A stock solution of all the target compounds was prepared with DMSO-medium (1:2), and then graded quantities of the test compounds were diluted with medium. The specified concentration suspension of fungus and bacterium contained approximately 10^3, and 10^5 CFU/mL was added into microtitration plates. The inoculated 96-well plates were incubated at 35 °C for 18 h. MIC was defined as the lowest concentrations that prevented visible growth of the bacteria.

[7] = tested on: Escherichia coli (ATCC 25922); assay: Antibacterial assay, microbroth dilution MIC; assay type: cell-based; conditions: Escherichia coli, ATCC25922; 35 °C, 18 h; read-out: MIC E. coli
From the text: as §3, §4

[8] = tested on: Staphylococcus aureus (ATCC 29213); assay: Antibacterial assay, microbroth dilution MIC; assay type: cell-based; conditions: Staphylococcus aureus, ATCC29213; 35 °C, 18 h; read-out: MIC S. aureus
From the text: as §3, §4

[9] = tested on: Bacillus subtilis (CMCC 63501); assay: Antibacterial assay, microbroth dilution MIC; assay type: cell-based; conditions: Bacillus subtilis, CMCC63501; 35 °C, 18 h; read-out: MIC B. subtilis
From the text: as §3, §4

[10] = tested on: MGC-803 gastric cancer cell line; assay: MTT antiproliferative assay; assay type: cell-based, human; conditions: Homo sapiens, MGC-803, 72 h, MTT, 72 h, mean ± SD of three experiments; read-out: IC50 MGC-803
Experimental: as §1, §2

[11] = tested on: Bel-7402 hepatoma cell line; assay: MTT antiproliferative assay; assay type: cell-based, human
Experimental: as §1, §2

K562 leukemia cell line = assay: MTT antiproliferative assay; assay type: cell-based, human; conditions: Homo sapiens, K562, 72 h, MTT, 72 h, mean ± SD of three experiments; read-out: IC50 K562
Experimental: as §1, §2

melting point: 128 to 130 °C
IC50 [4]: 3.6 ± 0.12 µM
MIC [6]: > 100 µg/mL
MIC [7]: > 100 µg/mL
MIC [8]: 32 µg/mL (≈ 40.4 µM)
MIC [9]: 64 µg/mL (≈ 80.7 µM)
IC50 [10]: 1110 ± 50 nM
IC50 ([11]; Homo sapiens, Bel-7402, MTT, 72 h, mean ± SD of three experiments, read-out: IC50 Bel-7402): 720 ± 40 nM
IC50 (K562 leukemia cell line): 1680 ± 120 nM
SMILES: C=C1C(=O)[C@@]23C(=O)O[C@H]4CCC(C)(C)[C@H]5[C@H](O)OC[C@@]45[C@@H]2CC[C@@H]1[C@H]3OC(=O)c1ccccc1C(=O)OCCCOc1no[n+]([O-])c1S(=O)(=O)c1ccccc1 [Compound 9f]
percentage of apoptotic cells (collapsed mitochondria, JC-1) (Bel-7402 cells [1]; 0.15 μM): 8.81%
percentage of apoptotic cells (collapsed mitochondria, JC-1) (Bel-7402 cells [1]; 0.3 μM): 21.82%
percentage of apoptotic cells (collapsed mitochondria, JC-1) (Bel-7402 cells [1]; 0.6 μM): 25.98%
cells in S phase (Bel-7402 cells [2]; 0.25 μM): 31.78%
cells in S phase (Bel-7402 cells [2]; 0.5 μM): 45.33%
cells in S phase (Bel-7402 cells [2]; 1 μM): 49.78%
IC50 [3]: 18.8 ± 1.25 µM
apoptotic cells, fold of control group (Bel-7402 cells [5]; 0.25 μM): 2.76 fold
total percentage of apoptotic cells (early and late, Q2 + Q4) (Bel-7402 cells [5]; 0.25 μM): 21.74%
apoptotic cells, fold of control group (Bel-7402 cells [5]; 0.5 μM): 4.54 fold
total percentage of apoptotic cells (early and late, Q2 + Q4) (Bel-7402 cells [5]; 0.5 μM): 35.78%
apoptotic cells, fold of control group (Bel-7402 cells [5]; 1 μM): 8.01 fold
total percentage of apoptotic cells (early and late, Q2 + Q4) (Bel-7402 cells [5]; 1 μM): 63.15%
SI (selectivity index) ([11]; SI = IC50, L-02/IC50, Bel-7402): 26.1
